*1 amine or outer side, *2 acyl side, *3 side chain or, on linkers, in order; H or OH if unused. Where a SMILES comes first, the peptide text is derived from it. Side-chain parts run from the residue outwards. [ ]: non-standard residue; d: D form. The star is where a group is joined. C20 diacid = O=C(O)CCCCCCCCCCCCCCCCCCC(=O)*; C18 diacid = O=C(O)CCCCCCCCCCCCCCCCC(=O)*; αMePhe(2-F) = C[C@](N)(Cc1ccccc1F)C(=O)O; γGlu = O=C(O)[C@H](CCC(=O)[*:2])N[*:1]; αMeL = CC(C)C[C@](C)(N)C(=O)O; AEEA = NCCOCCOCC(=O)O; Aib = CC(C)(N)C(=O)O
Target: T1, human GIPR (Homo sapiens, UniProt P48546)
T1 construct: expressed in transfected cells; crude membranes
T1 sequence (P48546 22-466): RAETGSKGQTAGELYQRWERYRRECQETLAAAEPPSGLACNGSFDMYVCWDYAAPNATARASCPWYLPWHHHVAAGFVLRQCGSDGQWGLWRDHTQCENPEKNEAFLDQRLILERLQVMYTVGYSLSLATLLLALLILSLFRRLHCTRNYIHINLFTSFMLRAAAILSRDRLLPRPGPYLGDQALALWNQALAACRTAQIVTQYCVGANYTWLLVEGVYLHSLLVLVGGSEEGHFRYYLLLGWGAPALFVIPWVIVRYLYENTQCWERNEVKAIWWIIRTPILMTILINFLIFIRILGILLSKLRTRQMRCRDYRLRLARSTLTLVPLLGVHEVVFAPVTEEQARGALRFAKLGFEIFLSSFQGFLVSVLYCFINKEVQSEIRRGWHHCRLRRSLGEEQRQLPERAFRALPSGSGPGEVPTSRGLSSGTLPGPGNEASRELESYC
Experiment: [125I]-GIP binding, SPA with WGA beads, 0.1% bacitracin
Conditions: geometric mean, read-out: hGIPR Ki
Procedure, shortened: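 Ki values are geometric means (SEM, n independent days), derived from four-parameter nonlinear regression of IC50. Membranes came from hGIPR-expressing CHO cells.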

CC[C@H](C)[C@H](NC(=O)[C@H](CO)NC(=O)[C@H](Cc1ccc(O)cc1)NC(=O)[C@H](CC(=O)O)NC(=O)[C@H](CO)NC(=O)[C@@H](NC(=O)[C@H](CC(C)C)NC(=O)[C@@H](NC(=O)CNC(=O)[C@H](CCC(=O)O)NC(=O)[C@@H](C)NC(=O)[C@@H](N)Cc1ccc(O)cc1)[C@@H](C)O)[C@@H](C)CC)C(=O)N[C@@H](CC(C)C)C(=O)N[C@@H](CC(C)C)C(=O)N[C@@H](CC(=O)O)C(=O)N[C@@H](CCCCN)C(=O)N[C@@H](CCCCNC(=O)COCCOCCNC(=O)COCCOCCNC(=O)CC[C@H](NC(=O)CCCCCCCCCCCCCCCCC(=O)O)C(=O)O)C(=O)N[C@@H](C)C(=O)N[C@@H](CCC(N)=O)C(=O)NC(C)(C)C(=O)N[C@@H](CC(=O)O)C(=O)N[C@@H](Cc1ccccc1)C(=O)N[C@H](C(=O)N[C@@H](CC(N)=O)C(=O)N[C@@H](Cc1c[nH]c2ccccc12)C(=O)N[C@@H](CC(C)C)C(=O)N[C@@H](CC(C)C)C(=O)N[C@@H](C)C(=O)N[C@@H](CCC(N)=O)C(=O)NCC(=O)N1CCC[C@H]1C(=O)N[C@@H](CO)C(=O)N[C@@H](CO)C(=O)NCC(=O)N[C@@H](C)C(=O)N1CCC[C@H]1C(=O)N1CCC[C@H]1C(=O)N1CCC[C@H]1C(=O)N[C@@H](CO)C(N)=O)C(C)C [Example 32] (H-Y[dA]EGTLISDYSILLDKK([AEEA-AEEA-γGlu-C18 diacid])AQ[Aib]DFVNWLLAQGPSSGAPPPS-NH2)
Ki: 0.0343 nM

CC[C@H](C)[C@H](NC(=O)[C@H](CO)NC(=O)[C@H](Cc1ccc(O)cc1)NC(=O)[C@H](CC(=O)O)NC(=O)[C@H](CO)NC(=O)[C@@H](NC(=O)[C@](C)(Cc1ccccc1F)NC(=O)[C@@H](NC(=O)CNC(=O)[C@H](CCC(=O)O)NC(=O)[C@H](C)NC(=O)[C@@H](Cc1ccc(O)cc1)NC(C)=O)[C@@H](C)O)[C@@H](C)CC)C(=O)N[C@@H](C)C(=O)N[C@@H](CC(C)C)C(=O)N[C@@H](CC(=O)O)C(=O)N[C@@H](CCCCN)C(=O)N[C@@H](CCCCNC(=O)COCCOCCNC(=O)COCCOCCNC(=O)CC[C@H](NC(=O)CCCCCCCCCCCCCCCCCCC(=O)O)C(=O)O)C(=O)N[C@@H](Cc1c[nH]cn1)C(=O)N[C@@H](CCC(N)=O)C(=O)NC(C)(C)C(=O)N[C@@H](CCC(=O)O)C(=O)N[C@@H](Cc1ccccc1)C(=O)N[C@H](C(=O)N[C@@H](CC(N)=O)C(=O)N[C@@H](Cc1ccc(O)cc1)C(=O)N[C@@H](CC(C)C)C(=O)N[C@@H](CC(C)C)C(=O)N[C@@H](CCC(=O)O)C(=O)NCC(=O)NCC(=O)N1CCC[C@H]1C(=O)N[C@@H](CO)C(=O)N[C@@H](CO)C(=O)NCC(=O)N[C@@H](C)C(=O)N1CCC[C@H]1C(=O)N1CCC[C@H]1C(=O)N1CCC[C@H]1C(=O)N[C@@H](CO)C(N)=O)C(C)C [Example 33] (Ac-[dY]AEGT[αMePhe(2-F)]ISDYSIALDKK([AEEA-AEEA-γGlu-C20 diacid])HQ[Aib]EFVNYLLEGGPSSGAPPPS-NH2)
Ki: 0.0369 nM

CC[C@H](C)[C@H](NC(=O)[C@H](CO)NC(=O)[C@H](Cc1ccc(O)cc1)NC(=O)[C@H](CC(=O)O)NC(=O)[C@H](CO)NC(=O)[C@@H](NC(=O)[C@](C)(Cc1ccccc1F)NC(=O)[C@@H](NC(=O)CNC(=O)[C@H](CCC(=O)O)NC(=O)C(C)(C)NC(=O)[C@@H](N)Cc1ccc(O)cc1)[C@@H](C)O)[C@@H](C)CC)C(=O)N[C@@H](C)C(=O)N[C@@H](CC(C)C)C(=O)N[C@@H](CC(=O)O)C(=O)N[C@@H](CCCCN)C(=O)N[C@@H](CCCCNC(=O)COCCOCCNC(=O)COCCOCCNC(=O)CC[C@H](NC(=O)CCCCCCCCCCCCCCCCCCC(=O)O)C(=O)O)C(=O)N[C@@H](Cc1c[nH]cn1)C(=O)N[C@@H](CCC(N)=O)C(=O)NC(C)(C)C(=O)N[C@@H](CCC(=O)O)C(=O)N[C@@H](Cc1ccccc1)C(=O)N[C@H](C(=O)N[C@@H](CC(N)=O)C(=O)N[C@@H](Cc1ccc(O)cc1)C(=O)N[C@@H](CC(C)C)C(=O)N[C@@H](CC(C)C)C(=O)N[C@@H](C)C(=O)N[C@H](C(=O)NCC(=O)N1CCC[C@H]1C(=O)N[C@@H](CO)C(=O)N[C@@H](CO)C(=O)NCC(=O)N[C@@H](C)C(=O)N1CCC[C@H]1C(=O)N1CCC[C@H]1C(=O)N1CCC[C@H]1C(=O)N[C@@H](CO)C(N)=O)[C@@H](C)O)C(C)C [Example 34] (H-Y[Aib]EGT[αMePhe(2-F)]ISDYSIALDKK([AEEA-AEEA-γGlu-C20 diacid])HQ[Aib]EFVNYLLATGPSSGAPPPS-NH2)
Ki: 0.034 nM

CC[C@H](C)[C@H](NC(=O)[C@H](CO)NC(=O)[C@H](Cc1ccc(O)cc1)NC(=O)[C@H](CC(=O)O)NC(=O)[C@H](CO)NC(=O)[C@@H](NC(=O)[C@](C)(CC(C)C)NC(=O)[C@@H](NC(=O)CNC(=O)[C@H](CCC(=O)O)NC(=O)C(C)(C)NC(=O)[C@@H](N)Cc1ccc(O)cc1)[C@@H](C)O)[C@@H](C)CC)C(=O)N[C@@H](C)C(=O)N[C@@H](CC(C)C)C(=O)N[C@@H](CC(=O)O)C(=O)N[C@@H](CCCCN)C(=O)N[C@@H](CCCCNC(=O)COCCOCCNC(=O)COCCOCCNC(=O)CC[C@H](NC(=O)CCCCCCCCCCCCCCCCCCC(=O)O)C(=O)O)C(=O)N[C@@H](Cc1c[nH]cn1)C(=O)N[C@@H](CCC(N)=O)C(=O)NC(C)(C)C(=O)N[C@@H](CCC(=O)O)C(=O)N[C@@H](Cc1ccccc1)C(=O)N[C@H](C(=O)N[C@@H](CC(N)=O)C(=O)N[C@@H](Cc1ccc(O)cc1)C(=O)N[C@@H](CC(C)C)C(=O)N[C@@H](CC(C)C)C(=O)N[C@@H](C)C(=O)N[C@H](C(=O)NCC(=O)N1CCC[C@H]1C(=O)N[C@@H](CO)C(=O)N[C@@H](CO)C(=O)NCC(=O)N[C@@H](C)C(=O)N1CCC[C@H]1C(=O)N1CCC[C@H]1C(=O)N1CCC[C@H]1C(=O)N[C@@H](CO)C(N)=O)[C@@H](C)O)C(C)C [Example 35] (H-Y[Aib]EGT[αMeL]ISDYSIALDKK([AEEA-AEEA-γGlu-C20 diacid])HQ[Aib]EFVNYLLATGPSSGAPPPS-NH2)
Ki: 0.0351 nM

CC[C@H](C)[C@H](NC(=O)[C@H](CO)NC(=O)[C@H](Cc1ccc(O)cc1)NC(=O)[C@H](CC(=O)O)NC(=O)[C@H](CO)NC(=O)[C@@H](NC(=O)[C@](C)(Cc1ccccc1F)NC(=O)[C@@H](NC(=O)CNC(=O)[C@H](CCC(=O)O)NC(=O)C(C)(C)NC(=O)[C@@H](N)Cc1ccc(O)cc1)[C@@H](C)O)[C@@H](C)CC)C(=O)N[C@@H](C)C(=O)N[C@@H](CC(C)C)C(=O)N[C@@H](CC(=O)O)C(=O)N[C@@H](CCCCN)C(=O)N[C@@H](CCCCNC(=O)COCCOCCNC(=O)COCCOCCNC(=O)CC[C@H](NC(=O)CCCCCCCCCCCCCCCCCCC(=O)O)C(=O)O)C(=O)N[C@@H](Cc1c[nH]cn1)C(=O)N[C@@H](CCC(N)=O)C(=O)NC(C)(C)C(=O)N[C@@H](CC(=O)O)C(=O)N[C@@H](Cc1ccccc1)C(=O)N[C@H](C(=O)N[C@@H](CCC(=O)O)C(=O)N[C@@H](Cc1ccc(O)cc1)C(=O)N[C@@H](CC(C)C)C(=O)N[C@@H](CC(C)C)C(=O)N[C@@H](CCC(=O)O)C(=O)N[C@H](C(=O)NCC(=O)N1CCC[C@H]1C(=O)N[C@@H](CO)C(=O)N[C@@H](CO)C(=O)NCC(=O)N[C@@H](C)C(=O)N1CCC[C@H]1C(=O)N1CCC[C@H]1C(=O)N1CCC[C@H]1C(=O)N[C@@H](CO)C(N)=O)[C@@H](C)O)C(C)C [Example 36] (H-Y[Aib]EGT[αMePhe(2-F)]ISDYSIALDKK([AEEA-AEEA-γGlu-C20 diacid])HQ[Aib]DFVEYLLETGPSSGAPPPS-NH2)
Ki: 0.0683 nM

CC[C@H](C)[C@H](NC(=O)[C@H](CO)NC(=O)[C@H](Cc1ccc(O)cc1)NC(=O)[C@H](CC(=O)O)NC(=O)[C@H](CO)NC(=O)[C@@H](NC(=O)[C@](C)(Cc1ccccc1F)NC(=O)[C@@H](NC(=O)CNC(=O)[C@H](CCC(=O)O)NC(=O)C(C)(C)NC(=O)[C@@H](N)Cc1ccc(O)cc1)[C@@H](C)O)[C@@H](C)CC)C(=O)N[C@@H](C)C(=O)N[C@@H](CC(C)C)C(=O)N[C@@H](CC(=O)O)C(=O)N[C@@H](CCCCN)C(=O)N[C@@H](CCCCNC(=O)COCCOCCNC(=O)COCCOCCNC(=O)CC[C@H](NC(=O)CCCCCCCCCCCCCCCCCCC(=O)O)C(=O)O)C(=O)N[C@@H](Cc1c[nH]cn1)C(=O)N[C@@H](CCC(N)=O)C(=O)NC(C)(C)C(=O)N[C@@H](CC(=O)O)C(=O)N[C@@H](Cc1ccccc1)C(=O)N[C@H](C(=O)N[C@@H](CCC(=O)O)C(=O)N[C@@H](Cc1ccc(O)cc1)C(=O)N[C@@H](CC(C)C)C(=O)N[C@@H](CC(C)C)C(=O)N[C@@H](CCC(=O)O)C(=O)NCC(=O)NCC(=O)N1CCC[C@H]1C(=O)N[C@@H](CO)C(=O)N[C@@H](CO)C(=O)NCC(=O)N[C@@H](C)C(=O)N1CCC[C@H]1C(=O)N1CCC[C@H]1C(=O)N1CCC[C@H]1C(=O)N[C@@H](CO)C(N)=O)C(C)C [Example 37] (H-Y[Aib]EGT[αMePhe(2-F)]ISDYSIALDKK([AEEA-AEEA-γGlu-C20 diacid])HQ[Aib]DFVEYLLEGGPSSGAPPPS-NH2)
Ki: 0.026 nM

— patent US12723063B2, “GIPR-agonist compounds” (Eli Lilly and Company, priority 2019, dated 2026)
